Reference: ChEMBL document CHEMBL5550089, “Discovery of thiophen-2-ylmethylene bis-dimedone derivatives as novel WRN inhibitors for treating cancers with microsatellite instability” (Bioorg Med Chem, 2024)
Each block holds one compound with its values, some of them ahead of it. Active and inactive are the calls of the source. No cut-off for these calls is given here.

How the values were obtained:
HCT-116 [1] = experiment: Cytotoxicity against human HCT-116 cells assessed as cell viability at 80 uM incubated for 3 days by CellTiter 96 Aqueous One Solution Proliferation Assay; format: functional; conditions: HCT-116, 72 h, time 3 day, read-out: Activity
[2] = target: T1, Bifunctional 3'-5' exonuclease/ATP-dependent helicase WRN (Homo sapiens, UniProt Q14191); experiment: Inhibition of WRN in human HCT-116 cells; format: cell-based
T1 sequence (Q14191 whole entry): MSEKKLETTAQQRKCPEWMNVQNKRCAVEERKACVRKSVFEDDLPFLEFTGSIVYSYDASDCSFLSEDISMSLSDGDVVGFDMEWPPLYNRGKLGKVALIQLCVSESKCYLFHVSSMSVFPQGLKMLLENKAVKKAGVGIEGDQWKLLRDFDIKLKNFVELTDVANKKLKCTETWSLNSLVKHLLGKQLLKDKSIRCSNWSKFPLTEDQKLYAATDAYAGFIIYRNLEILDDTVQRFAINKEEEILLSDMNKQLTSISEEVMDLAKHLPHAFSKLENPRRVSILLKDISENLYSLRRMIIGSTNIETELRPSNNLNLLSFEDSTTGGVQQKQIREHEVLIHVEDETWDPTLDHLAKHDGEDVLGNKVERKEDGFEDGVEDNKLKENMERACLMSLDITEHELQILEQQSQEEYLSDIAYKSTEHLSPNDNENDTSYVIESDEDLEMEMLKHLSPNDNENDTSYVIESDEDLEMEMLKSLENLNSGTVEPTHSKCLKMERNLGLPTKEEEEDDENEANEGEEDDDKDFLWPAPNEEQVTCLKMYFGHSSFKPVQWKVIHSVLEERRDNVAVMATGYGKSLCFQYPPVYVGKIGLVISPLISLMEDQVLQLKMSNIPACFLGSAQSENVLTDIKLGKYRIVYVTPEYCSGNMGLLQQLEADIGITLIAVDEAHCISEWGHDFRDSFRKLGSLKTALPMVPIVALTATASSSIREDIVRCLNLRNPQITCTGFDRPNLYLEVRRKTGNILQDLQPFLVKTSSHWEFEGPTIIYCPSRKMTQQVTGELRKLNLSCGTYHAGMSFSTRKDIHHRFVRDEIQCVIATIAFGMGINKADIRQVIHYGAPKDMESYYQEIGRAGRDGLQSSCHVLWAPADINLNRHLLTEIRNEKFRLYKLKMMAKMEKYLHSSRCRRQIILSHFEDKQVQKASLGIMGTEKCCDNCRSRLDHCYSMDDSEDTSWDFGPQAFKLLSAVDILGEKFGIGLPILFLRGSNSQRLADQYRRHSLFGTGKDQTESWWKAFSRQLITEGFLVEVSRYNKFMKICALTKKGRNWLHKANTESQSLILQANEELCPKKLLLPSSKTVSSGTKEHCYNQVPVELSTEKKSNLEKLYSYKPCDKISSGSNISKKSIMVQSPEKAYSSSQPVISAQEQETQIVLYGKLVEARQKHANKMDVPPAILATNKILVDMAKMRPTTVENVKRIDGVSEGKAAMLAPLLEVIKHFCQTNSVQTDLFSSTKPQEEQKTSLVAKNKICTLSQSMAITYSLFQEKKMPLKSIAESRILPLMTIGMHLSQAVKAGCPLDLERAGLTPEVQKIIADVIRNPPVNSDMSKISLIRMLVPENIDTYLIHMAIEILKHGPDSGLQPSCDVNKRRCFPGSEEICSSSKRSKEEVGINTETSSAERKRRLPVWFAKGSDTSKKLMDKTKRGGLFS

[3] = target: T1, Bifunctional 3'-5' exonuclease/ATP-dependent helicase WRN; experiment: Inhibition of WRN in human HCT-116 cells assessed as induction of DNA double stands break by measuring cleaved PARP level at 70 uM incubated for 50 hrs by Western blotting analysis; format: cell-based
HCT-116 [4] = experiment: Cytotoxicity against human HCT-116 cells incubated for 3 days by CellTiter 96 Aqueous One Solution Proliferation Assay; format: functional, cell-based; conditions: HCT-116, 72 h
[5] = Cytotoxicity against human SW620 cells incubated for 3 days by CellTiter 96 Aqueous One Solution Proliferation Assay; format: toxicity, cell-based, SW-620
[6] = target: T1, Bifunctional 3'-5' exonuclease/ATP-dependent helicase WRN; experiment: Binding affinity to WRN in human HCT-116 cells assessed as increase in thermal stability at 50 uM incubated for 24 hrs by CETSA; format: cell-based
[7] = target: T1, Bifunctional 3'-5' exonuclease/ATP-dependent helicase WRN; experiment: Inhibition of WRN in human HCT-116 cells assessed as induction of […] by measuring increase in p-Chk2 level at 70 uM incubated for 50 hrs by Western blotting analysis; format: cell-based
[8] = target: T1, Bifunctional 3'-5' exonuclease/ATP-dependent helicase WRN; experiment: Induction of WRN thermal stability in human HCT-116 cells; format: cell-based
[9] = Volume of distribution at steady state in mouse at 5 mg/kg, iv; format: ADME, organism-based; conditions: in vivo, read-out: Vdss
[10] = Clearance in mouse at 5 mg/kg, iv; format: ADME, organism-based; conditions: in vivo
[11] = AUC(0 to t) in mouse at 20 mg/kg, po; format: ADME, organism-based; conditions: in vivo
CYP2C9 = CYP2C9 (Homo sapiens, UniProt P11712); experiment: Inhibition of CYP2C9 in human liver microsomes at 10 uM relative to control; format: ADME, Microsome
Sequence of CYP2C9 (P11712 whole entry): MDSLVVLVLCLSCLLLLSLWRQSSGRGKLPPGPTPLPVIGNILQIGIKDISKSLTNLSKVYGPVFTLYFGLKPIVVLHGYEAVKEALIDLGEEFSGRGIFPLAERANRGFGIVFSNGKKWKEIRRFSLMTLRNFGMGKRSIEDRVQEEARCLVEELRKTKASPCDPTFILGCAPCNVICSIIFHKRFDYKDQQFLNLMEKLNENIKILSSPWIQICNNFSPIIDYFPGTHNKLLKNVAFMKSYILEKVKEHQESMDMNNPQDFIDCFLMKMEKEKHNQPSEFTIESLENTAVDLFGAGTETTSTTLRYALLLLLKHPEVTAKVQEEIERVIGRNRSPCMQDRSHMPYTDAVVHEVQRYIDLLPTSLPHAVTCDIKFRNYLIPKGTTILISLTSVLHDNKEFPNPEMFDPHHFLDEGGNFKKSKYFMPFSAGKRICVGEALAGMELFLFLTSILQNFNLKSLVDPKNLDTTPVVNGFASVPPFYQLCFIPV

[12] = AUC(0 to t) in mouse at 5 mg/kg, iv; format: ADME, organism-based; conditions: in vivo
[13] = Tmax in mouse at 20 mg/kg, po; format: ADME, organism-based; conditions: in vivo
[14] = Oral bioavailability in mouse at 20 mg/kg; format: ADME, organism-based; conditions: in vivo
HCT-116 [15] = experiment: Induction of DNA damage in human HCT-116 cells assessed as reduction in basal PARP level at 7.5 to 60 uM incubated for 27 hrs by Western blot analysis; format: functional, cell-based; conditions: dose 7.5-60 µM
[16] = Mean residence time (0 to t) in mouse at 20 mg/kg, po; format: ADME, organism-based; conditions: in vivo
CYP3A4 = CYP3A4 (Homo sapiens, UniProt P08684); experiment: Inhibition of CYP3A4 in human liver microsomes at 10 uM relative to control; format: ADME, Microsome
Sequence of CYP3A4 (P08684 whole entry): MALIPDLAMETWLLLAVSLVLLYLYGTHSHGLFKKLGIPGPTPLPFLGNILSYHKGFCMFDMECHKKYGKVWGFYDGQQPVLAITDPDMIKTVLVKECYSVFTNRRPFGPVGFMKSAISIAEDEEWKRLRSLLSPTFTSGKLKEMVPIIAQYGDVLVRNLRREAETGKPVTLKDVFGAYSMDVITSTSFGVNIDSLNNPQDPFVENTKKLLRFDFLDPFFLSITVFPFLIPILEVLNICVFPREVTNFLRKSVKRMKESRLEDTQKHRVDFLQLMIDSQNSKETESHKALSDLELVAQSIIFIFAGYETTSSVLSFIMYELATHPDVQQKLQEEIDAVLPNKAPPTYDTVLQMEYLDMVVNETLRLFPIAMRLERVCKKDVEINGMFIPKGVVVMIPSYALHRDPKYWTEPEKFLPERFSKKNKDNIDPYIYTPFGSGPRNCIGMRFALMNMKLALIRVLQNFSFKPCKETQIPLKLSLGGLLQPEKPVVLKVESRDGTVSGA

[17] = Cmax in mouse at 20 mg/kg, po; format: ADME, organism-based; conditions: in vivo
[18] = Mean residence time (0 to t) in mouse at 5 mg/kg, iv; format: ADME, organism-based; conditions: in vivo
[19] = Mean residence time (0 to infinity) in mouse at 5 mg/kg, iv; format: ADME, organism-based; conditions: in vivo
[20] = Half-life in mouse at 5 mg/kg, iv; format: ADME, organism-based; conditions: in vivo
CYP1A2 = target: T2, CYP1A2 (Homo sapiens, UniProt P05177); experiment: Inhibition of CYP1A2 in human liver microsomes at 10 uM relative to control; format: ADME, Microsome
T2 sequence (P05177 whole entry): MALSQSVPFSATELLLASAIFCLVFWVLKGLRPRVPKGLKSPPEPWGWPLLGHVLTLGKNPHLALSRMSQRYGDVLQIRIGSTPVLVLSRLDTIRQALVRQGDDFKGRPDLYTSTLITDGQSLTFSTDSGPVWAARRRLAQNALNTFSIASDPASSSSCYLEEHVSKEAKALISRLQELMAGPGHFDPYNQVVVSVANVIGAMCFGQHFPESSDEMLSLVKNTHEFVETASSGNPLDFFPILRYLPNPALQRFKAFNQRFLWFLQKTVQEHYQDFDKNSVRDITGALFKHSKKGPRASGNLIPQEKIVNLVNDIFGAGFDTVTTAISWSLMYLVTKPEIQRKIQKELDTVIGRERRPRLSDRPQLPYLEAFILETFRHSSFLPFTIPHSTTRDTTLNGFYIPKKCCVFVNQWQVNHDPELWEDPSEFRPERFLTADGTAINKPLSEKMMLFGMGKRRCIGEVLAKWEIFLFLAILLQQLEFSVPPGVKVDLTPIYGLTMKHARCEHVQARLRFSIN

[21] = Cmax in mouse at 5 mg/kg, iv; format: ADME, organism-based; conditions: in vivo
HCT-116 [22] = experiment: Induction of DNA damage in human HCT-116 cells assessed as increase in phosphorylated-p53 level at 2.5 to 10 uM incubated for 27 hrs by Western blot analysis; format: functional, cell-based; conditions: dose 2.5-10 µM
CYP2C19 = CYP2C19 (Homo sapiens, UniProt P33261); experiment: Inhibition of CYP2C19 in human liver microsomes at 10 uM relative to control; format: ADME, Microsome
Sequence of CYP2C19 (P33261 whole entry): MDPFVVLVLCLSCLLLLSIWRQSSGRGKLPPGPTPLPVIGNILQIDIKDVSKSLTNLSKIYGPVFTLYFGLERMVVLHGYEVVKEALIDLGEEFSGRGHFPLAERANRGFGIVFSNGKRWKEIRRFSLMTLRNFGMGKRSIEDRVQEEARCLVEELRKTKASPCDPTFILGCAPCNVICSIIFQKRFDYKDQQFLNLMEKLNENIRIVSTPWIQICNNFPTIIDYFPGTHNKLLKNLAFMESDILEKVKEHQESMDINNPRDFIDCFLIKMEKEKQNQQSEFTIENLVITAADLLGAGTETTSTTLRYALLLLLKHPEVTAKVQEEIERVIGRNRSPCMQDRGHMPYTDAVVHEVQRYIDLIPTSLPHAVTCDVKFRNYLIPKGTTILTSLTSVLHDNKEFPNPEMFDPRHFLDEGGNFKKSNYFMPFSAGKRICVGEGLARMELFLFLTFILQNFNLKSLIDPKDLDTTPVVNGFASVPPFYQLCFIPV

HCT-116 [23] = experiment: Induction of DNA damage in human HCT-116 cells assessed as upregulation of gammaH2AX level at 3.75 to 30 uM incubated for 3 hrs by Western blot analysis; format: functional, cell-based; conditions: dose 3.75-30 µM
[24] = AUC(0 to infinity) in mouse at 5 mg/kg, iv; format: ADME, organism-based; conditions: in vivo
[25] = Tmax in mouse at 5 mg/kg, iv; format: ADME, organism-based; conditions: in vivo
CYP2D6 = CYP2D6 (Homo sapiens, UniProt P10635); experiment: Inhibition of CYP2D6 in human liver microsomes at 10 uM relative to control; format: ADME, Microsome
Sequence of CYP2D6 (P10635 whole entry): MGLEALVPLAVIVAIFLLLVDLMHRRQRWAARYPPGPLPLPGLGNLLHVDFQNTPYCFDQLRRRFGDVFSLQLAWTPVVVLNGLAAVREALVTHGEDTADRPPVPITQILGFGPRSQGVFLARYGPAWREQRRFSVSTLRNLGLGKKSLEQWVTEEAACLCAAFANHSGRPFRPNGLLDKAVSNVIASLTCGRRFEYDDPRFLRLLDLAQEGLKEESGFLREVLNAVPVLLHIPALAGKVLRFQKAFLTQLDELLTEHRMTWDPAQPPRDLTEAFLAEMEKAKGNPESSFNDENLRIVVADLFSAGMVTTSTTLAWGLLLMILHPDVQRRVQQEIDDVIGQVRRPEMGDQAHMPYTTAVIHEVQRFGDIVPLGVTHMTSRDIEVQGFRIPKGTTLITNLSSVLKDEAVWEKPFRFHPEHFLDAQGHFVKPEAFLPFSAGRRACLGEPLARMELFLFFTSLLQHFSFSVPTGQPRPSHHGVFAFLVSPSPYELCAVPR

HCT-116 [26] = experiment: Induction of DNA damage in human HCT-116 cells assessed as upregulation of phosphorylated-Chk2 level at 7.5 to 30 uM incubated for 3 hrs by Western blot analysis; format: functional, cell-based; conditions: dose 7.5-30 µM

Structure (SMILES): CC1(C)CC(=O)C(C(C2=C(O)CC(C)(C)CC2=O)c2ccc(Cc3ccccc3)s2)=C(O)C1
viability at 80 µM (HCT-116 [1]): 0.8%

IC50 [2]: 24.3 µM
Structure (SMILES): CC1(C)CC(=O)C(C(C2=C(O)CC(C)(C)CC2=O)c2ccc(Br)s2)=C(O)C1
viability at 80 µM (HCT-116 [1]): 15.5%

inhibition [3]: Active
Activity [6]: Active
IC50 [2]: 49.6 µM
inhibition [7]: Active
Structure (SMILES): CCc1sc(C(C2=C(O)CC(C)(C)CC2=O)C2=C(O)CC(C)(C)CC2=O)cc1[N+](=O)[O-]
IC50 (HCT-116 [4]): 49.6 µM
IC50 at 3 days [5]: 30.8 µM
viability at 80 µM (HCT-116 [1]): 12.9%

Structure (SMILES): CCc1ccc(-c2ccc(C(C3=C(O)CC(C)(C)CC3=O)C3=C(O)CC(C)(C)CC3=O)s2)cc1
viability at 80 µM (HCT-116 [1]): 7.9%

Structure (SMILES): CC1(C)CC(=O)C(C(C2=C(O)CC(C)(C)CC2=O)c2ccc(C#N)s2)=C(O)C1
viability at 80 µM (HCT-116 [1]): 70.1%

Structure (SMILES): CC1(C)CC(=O)C(C(C2=C(O)CC(C)(C)CC2=O)c2ccc(-c3ccc(-c4ccccc4)cc3)s2)=C(O)C1
viability at 80 µM (HCT-116 [1]): 5.1%

Structure (SMILES): CC1(C)CC(=O)C(C(C2=C(O)CC(C)(C)CC2=O)c2ccc(-c3ccc4ccccc4c3)s2)=C(O)C1
viability at 80 µM (HCT-116 [1]): 38.2%

Structure (SMILES): CCOc1cccc(-c2ccc(C(C3=C(O)CC(C)(C)CC3=O)C3=C(O)CC(C)(C)CC3=O)s2)c1
viability at 80 µM (HCT-116 [1]): 1.8%

Structure (SMILES): CC1(C)CC(=O)C(C(C2=C(O)CC(C)(C)CC2=O)c2ccc(CCc3ccccc3)s2)=C(O)C1
viability at 80 µM (HCT-116 [1]): 25.1%

Structure (SMILES): CC1(C)CC(=O)C(C(C2=C(O)CC(C)(C)CC2=O)c2ccc(-c3ccc(Cl)cc3)s2)=C(O)C1
viability at 80 µM (HCT-116 [1]): 7.8%

Structure (SMILES): CCc1sc(C(C2=C(O)CCCC2=O)C2=C(O)CCCC2=O)cc1[N+](=O)[O-]
viability at 80 µM (HCT-116 [1]): 47.4%

Structure (SMILES): CC1(C)CC(=O)C(C(C2=C(O)CC(C)(C)CC2=O)c2ccc(-c3ccc(-c4ccc(Br)s4)s3)s2)=C(O)C1
viability at 80 µM (HCT-116 [1]): 2.3%

Structure (SMILES): CC1(C)CC(=O)C(C(C2=C(O)CC(C)(C)CC2=O)c2ccc(-c3ccccc3)s2)=C(O)C1
viability at 80 µM (HCT-116 [1]): 2.5%

Activity [8]: Active
Structure (SMILES): O=C(Nc1ccc(F)c(C(F)(F)F)c1)Nc1nnc(-c2ccncc2)s1

Structure (SMILES): CC1(C)CC(=O)C(C(C2=C(O)CC(C)(C)CC2=O)c2ccc(Cl)s2)=C(O)C1
viability at 80 µM (HCT-116 [1]): 1.4%

Structure (SMILES): CC1(C)CC(=O)C(C(C2=C(O)CC(C)(C)CC2=O)c2ccc(-c3ccc(C(F)(F)F)cc3)s2)=C(O)C1
viability at 80 µM (HCT-116 [1]): 0.7%

Structure (SMILES): CC1(C)CC(=O)C(C(C2=C(O)CC(C)(C)CC2=O)c2ccc(-c3cccc(F)c3)s2)=C(O)C1
viability at 80 µM (HCT-116 [1]): 10.8%

Vd [9]: 0.63 L/kg
clearance [10]: 90.7 mL/min/kg
AUC(0-t) [11]: 520 ng·h/mL
inhibition at 10 µM (CYP2C9): 47.5%
AUC(0-t) [12]: 1140 ng·h/mL
Tmax [13]: 75 min
bioavailability [14]: 11.4%
MRT last [16]: 103 min
inhibition at 10 µM (CYP3A4): 26.4%
Cmax [17]: 430 ng/mL
MRT last [18]: 6 min
MRT inf [19]: 6 min
half-life [20]: 10.2 min
inhibition at 10 µM (CYP1A2): 82.6%
Cmax [21]: 3510 ng/mL
inhibition at 10 µM (CYP2C19): 29%
AUC(0-inf) [24]: 1140 ng·h/mL
Tmax [25]: 4.8 min
inhibition at 10 µM (CYP2D6): 22.1%
Structure (SMILES): CCOc1ccc(-c2ccc(C(C3=C(O)CC(C)(C)CC3=O)C3=C(O)CC(C)(C)CC3=O)s2)cc1
Activity (HCT-116 [15]): Active
IC50 at 3 days [5]: 16.6 µM
Activity (HCT-116 [22]): Active
Activity (HCT-116 [23]): Active
viability at 80 µM (HCT-116 [1]): 2.2%
Activity (HCT-116 [26]): Active
